Test results taken from PubChem BioAssay AID248 (DTP/NCI, 2004).
Several values for one entry are separate records, joined by “and”; a condition that tells them apart may be missing. Equal values may be shown once. Inconclusive results and toxic doses are left out. No stated cut-off is given here; in the data, active means T/C of 150% or more; inactive means T/C below 125%.

System: L1210 leukemia ip in BDF1 mice, survival T/C
Test: NCI In Vivo Anticancer Drug Screen. Data for tumor model L1210 Leukemia (intraperitoneal) in B6D2F1 (BDF1) mice
Conditions: endpoint: mean survival time, higher = longer survival
Outline: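 Antitumor effect is assessed in tumor-bearing animals. Survival in the compound arm is compared with a vehicle-dosed control arm and expressed as their quotient.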

[1] = dose: 6.25 mg/kg/injection, schedule: Q01DX009 (ip), vehicle: saline
[2] = dose: 12.5 mg/kg/injection, schedule: Q01DX009 (ip), vehicle: saline
[3] = dose: 100.0 mg/kg/injection, schedule: Q01DX001 (ip), vehicle: saline
[4] = dose: 200.0 mg/kg/injection, schedule: Q01DX001 (ip), vehicle: saline
[5] = dose: 75.0 mg/kg/injection, schedule: Q01DX001 (ip), vehicle: saline
[6] = dose: 150.0 mg/kg/injection, schedule: Q01DX001 (ip), vehicle: saline
[7] = dose: 100.0 mg/kg/injection, schedule: Q01DX009 (ip), vehicle: Klucel (hydroxypropylcellulose) (HPC)
[8] = dose: 200.0 mg/kg/injection, schedule: Q01DX009 (ip), vehicle: Klucel (hydroxypropylcellulose) (HPC)
[9] = dose: 400.0 mg/kg/injection, schedule: Q01DX009 (ip), vehicle: Klucel (hydroxypropylcellulose) (HPC)
[10] = dose: 100.0 mg/kg/injection, schedule: Q01DX001 (ip), vehicle: carboxymethylcellulose (CMC)
[11] = dose: 200.0 mg/kg/injection, schedule: Q01DX001 (ip), vehicle: carboxymethylcellulose (CMC)
[12] = dose: 400.0 mg/kg/injection, schedule: Q01DX001 (ip), vehicle: carboxymethylcellulose (CMC)
[13] = dose: 100.0 mg/kg/injection, schedule: Q01DX009 (ip), vehicle: saline with Tween-80
[14] = dose: 100.0 mg/kg/injection, schedule: Q04DX003 (ip), vehicle: saline with Tween-80
[15] = dose: 200.0 mg/kg/injection, schedule: Q01DX009 (ip), vehicle: saline with Tween-80
[16] = dose: 200.0 mg/kg/injection, schedule: Q04DX003 (ip), vehicle: saline with Tween-80
[17] = dose: 400.0 mg/kg/injection, schedule: Q04DX003 (ip), vehicle: saline with Tween-80
[18] = dose: 100.0 mg/kg/injection, schedule: Q04DX003 (ip), vehicle: Klucel (hydroxypropylcellulose) (HPC)
[19] = dose: 200.0 mg/kg/injection, schedule: Q04DX003 (ip), vehicle: Klucel (hydroxypropylcellulose) (HPC)
[20] = dose: 400.0 mg/kg/injection, schedule: Q04DX003 (ip), vehicle: Klucel (hydroxypropylcellulose) (HPC)

Measured: T/C

Oc1c(Cl)c(Cl)cc(Cl)c1Cc1c(Cl)cc(Cl)c(Cl)c1[O][Pb]([c]1ccccc1)([c]1ccccc1)[c]1ccccc1
inactive: [1] 101 % of control | [2] 95 % of control | dose: 25.0 mg/kg/injection, schedule: Q04DX002 (ip), vehicle: saline 86 % of control | dose: 100.0 mg/kg/injection, schedule: Q04DX002 (ip), vehicle: saline 97 % of control

O=C(Nc1ccc([N+](=O)[O-])cc1Cl)c1ccc(C(=O)Nc2ccc([N+](=O)[O-])cc2Cl)cc1
inactive: [3] 96 % of control | [4] 94 % of control | dose: 400.0 mg/kg/injection, schedule: Q01DX001 (ip), vehicle: saline 91 % of control

Nc1nc(N)c2ncn(C3OC(CO)C(O)C3O)c2n1 (stereo not drawn)
inactive: [3] 102 % of control | [4] 115 % of control

CC1C(=O)OC2C1CCC1(C)C=CC(=O)C(C)C21 (stereo not drawn)
inactive: [5] 102 % of control | [6] 103 % of control

N=C(CNC1CC2CCC1C2)SS(=O)(=O)O (stereo not drawn)
inactive: dose: 3.13 mg/kg/injection, schedule: Q01DX009 (ip), vehicle: Klucel (hydroxypropylcellulose) (HPC) 97 % of control | dose: 3.13 mg/kg/injection, schedule: Q04DX002 (ip), vehicle: Klucel (hydroxypropylcellulose) (HPC) 98 % of control | dose: 6.25 mg/kg/injection, schedule: Q01DX009 (ip), vehicle: Klucel (hydroxypropylcellulose) (HPC) 94 % of control | dose: 6.25 mg/kg/injection, schedule: Q04DX002 (ip), vehicle: Klucel (hydroxypropylcellulose) (HPC) 95 % of control | dose: 12.5 mg/kg/injection, schedule: Q01DX009 (ip), vehicle: Klucel (hydroxypropylcellulose) (HPC) 105 % of control | dose: 12.5 mg/kg/injection, schedule: Q04DX002 (ip), vehicle: Klucel (hydroxypropylcellulose) (HPC) 98 % of control and 103 % of control

COC(=O)C1=CC=CC1
inactive: dose: 100.0 mg/kg/injection, schedule: Q01DX005 (ip), vehicle: Klucel (hydroxypropylcellulose) (HPC) 103 % of control | [7] 104 % of control | dose: 200.0 mg/kg/injection, schedule: Q01DX005 (ip), vehicle: Klucel (hydroxypropylcellulose) (HPC) 98 % of control | [8] 104 % of control | dose: 400.0 mg/kg/injection, schedule: Q01DX005 (ip), vehicle: Klucel (hydroxypropylcellulose) (HPC) 95 % of control | [9] 93 % of control

O=C(CCl)NCCCCCNC(=O)CCl
inactive: [7] 104 % of control | [8] 105 % of control

Cc1ccc(I)c([N+](=O)[O-])c1
inactive: dose: 50.0 mg/kg/injection, schedule: Q01DX001 (ip), vehicle: carboxymethylcellulose (CMC) 96 % of control | [10] 89 % of control | [11] 91 % of control | [12] 100 % of control

CCCCS(=O)c1nc2ccccc2s1 (stereo not drawn)
inactive: dose: 100.0 mg/kg/injection, schedule: Q04DX002 (ip), vehicle: other 88 % of control | dose: 200.0 mg/kg/injection, schedule: Q04DX002 (ip), vehicle: other 91 % of control

CCCC1(C)NC(=O)NC1=O (stereo not drawn)
inactive: [13] 97 % of control | [14] 110 % of control | [15] 98 % of control | [16] 104 % of control | dose: 400.0 mg/kg/injection, schedule: Q01DX009 (ip), vehicle: saline with Tween-80 93 % of control | [17] 102 % of control

COc1ccccc1NC(=O)Nc1ccc(Nc2ccccc2)cc1
inactive: [7] 101 % of control | [18] 103 % of control | [8] 104 % of control | [19] 91 % of control | [9] 104 % of control | [20] 97 % of control

NC(=O)N1Cc2ccccc2CCc2ccccc2C1
inactive: [18] 98 % of control | [20] 91 % of control

NC(=S)NN=C1CCN(Cc2ccccc2)CC1
inactive: dose: 50.0 mg/kg/injection, schedule: Q01DX001 (ip), vehicle: saline 95 % of control | [3] 101 % of control

COc1ccc(Br)cc1/C=C\C=O
inactive: [10] 87 % of control | [11] 105 % of control | [12] 100 % of control

O=C1C[N+]2(CCCCC2)c2ccc(Cl)cc2N1
inactive: [1] 87 % of control | dose: 6.25 mg/kg/injection, schedule: Q04DX003 (ip), vehicle: saline 91 % of control | [2] 92 % of control | dose: 12.5 mg/kg/injection, schedule: Q04DX003 (ip), vehicle: saline 91 % of control | dose: 25.0 mg/kg/injection, schedule: Q01DX009 (ip), vehicle: saline 95 % of control | dose: 25.0 mg/kg/injection, schedule: Q04DX003 (ip), vehicle: saline 93 % of control

CC(=O)NCc1ccc([N+](=O)[O-])cc1
inactive: dose: 25.0 mg/kg/injection, schedule: Q01DX009 (ip), vehicle: saline with Tween-80 100 % of control | dose: 50.0 mg/kg/injection, schedule: Q01DX009 (ip), vehicle: saline with Tween-80 107 % of control | [13] 104 % of control | [15] 111 % of control

CCCCCCCCCCCCCCCCN(C)/C(=N\NS(=O)(=O)c1cccc([N+](=O)[O-])c1)c1ccc(OC)c(OC)c1
inactive: [18] 93 % of control | [19] 95 % of control | [20] 93 % of control

Cc1ccc(S(=O)(=O)OCCOCCOCCOCCOCCOCCOS(=O)(=O)c2ccc(C)cc2)cc1
inactive: dose: 100.0 mg/kg/injection, schedule: Q01DX001 (ip), vehicle: other 103 % of control | dose: 200.0 mg/kg/injection, schedule: Q01DX001 (ip), vehicle: other 98 % of control | dose: 400.0 mg/kg/injection, schedule: Q01DX001 (ip), vehicle: other 98 % of control

CCOC(=O)C(=CN(C(C)C)C(C)C)C(=O)OCC
inactive: dose: 50.0 mg/kg/injection, schedule: Q01DX009 (ip), vehicle: saline 100 % of control | dose: 100.0 mg/kg/injection, schedule: Q01DX009 (ip), vehicle: saline 98 % of control | [14] 94 % of control | dose: 200.0 mg/kg/injection, schedule: Q01DX009 (ip), vehicle: saline 101 % of control | [16] 100 % of control

CN1C2CCCCC1CC(=O)NC2 (stereo not drawn)
inactive: [5] 98 % of control | [6] 101 % of control

CCCCCCCCCCCC(CCCCCCCC)C1CCCCC1 (stereo not drawn)
inactive: dose: 100.0 mg/kg/injection, schedule: Q01DX001 (ip), vehicle: saline + alcohol 101 % of control | dose: 200.0 mg/kg/injection, schedule: Q01DX001 (ip), vehicle: saline + alcohol 103 % of control | dose: 400.0 mg/kg/injection, schedule: Q01DX001 (ip), vehicle: saline + alcohol 108 % of control

CCN(CC)C(=S)Oc1ccc(OC(=S)N(CC)CC)cc1
inactive: dose: 12.5 mg/kg/injection, schedule: Q04DX002 (ip), vehicle: saline with Tween-80 93 % of control | dose: 25.0 mg/kg/injection, schedule: Q04DX002 (ip), vehicle: saline with Tween-80 97 % of control | dose: 50.0 mg/kg/injection, schedule: Q04DX002 (ip), vehicle: saline with Tween-80 93 % of control | [16] 89 % of control | [17] 91 % of control

COc1ccc(/C=C(\SS/C(=C/c2ccc(OC)cc2)C(=O)O)C(=O)O)cc1
inactive: [3] 89 % of control | [4] 94 % of control
